Experimental data reported in patent US20230278972A1, “SUBSTITUTED HALOALKYL SULFONANILIDE HERBICIDES” (FMC Corporation, priority 2020, published 2023).

Legend:
Assay type in all cases: in vivo
[1] = test system: blackgrass (Alopecurus myosuroides); assay: Test A1 preemergence, blackgrass
Method in brief: (§1)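 Herbicidal response was scored on plants treated either preemergence, by directed spray onto soil of a loam–sand blend after sowing, or postemergence on potted plants at the one- to two-leaf stage, 2–10 cm high. Test chemicals were carried in a non-phytotoxic solvent mix with surfactant.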

[2] = test system: goosegrass (Eleusine indica); assay: Test A1 preemergence, goosegrass
Method in brief: as §1

kochia (Bassia scoparia) = assay: Test A1 postemergence, kochia; settings: Postemergence
Method in brief: (§2)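 Pre: seeds in loam/sand blend, directed soil spray. Post: potted plants, same soil, 2–10 cm, 1–2 leaf stage. Chemicals in non-phytotoxic solvent + surfactant for both.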

[3] = test system: Pigweed, Palmer (palmer amaranth, palmer pigweed, Amaranthus palmeri); assay: Test A1 postemergence, Pigweed, Palmer; settings: Postemergence
Method in brief: as §1

[4] = test system: ragweed (common ragweed, Ambrosia artemisiifolia); assay: Test A1 postemergence, ragweed; settings: Postemergence
Method in brief: as §1

soybean (Glycine max) = assay: Test A1 postemergence, soybean; settings: Postemergence
Method in brief: as §2

[5] = test system: wheat (Triticum aestivum); assay: Test A1 postemergence, wheat; settings: Postemergence
Method in brief: as §2

[6] = 31 g ai/ha, 0 to 100 scale (0 no effect, 100 complete control)
[7] = 125 g ai/ha, 0 to 100 scale, 0 no effect, 100 complete control
[8] = 31 g ai/ha, 0 to 100 scale (0 no effect, 100 complete control), 10 days

Row | Structure (SMILES) | Plant response rating, Blackgrass [1, 6] | Plant response rating, Blackgrass [1, 7] | Plant response rating, Goosegrass [2, 6] | Plant response rating, Goosegrass [2, 7] | Plant response rating, Kochia (kochia (Bassia scoparia); [8]) | Plant response rating, Kochia (kochia (Bassia scoparia); 125 g ai/ha, 0 to 100 scale) | Plant response rating, Pigweed, Palmer [3, 8] | Plant response rating, Pigweed, Palmer ([3]; 125 g ai/ha, 0 to 100 scale) | Plant response rating, Ragweed [4, 8] | Plant response rating, Ragweed ([4]; 125 g ai/ha, 0 to 100 scale) | Plant response rating, Soybean (soybean (Glycine max); [8]) | Plant response rating, Soybean (soybean (Glycine max); 125 g ai/ha, 0 to 100 scale) | Plant response rating, Wheat [5, 8] | Plant response rating, Wheat ([5]; 125 g ai/ha, 0 to 100 scale)
1 | CCC1ON=C(c2cc(N(COC(=O)C(C)(C)C)S(=O)(=O)C(F)(F)F)c(C)cc2C)C1CC (stereo not drawn) [Compound 344] | 0 | 30 | 20 | 90 | 20 | 60 | 20 | 50 | 30 | 60 | 40 | 50 | 40 | 70
2 | COC(=O)OCN(c1cc(C2=NOC3CCCC23)c(C)cc1C)S(=O)(=O)C(F)(F)F (stereo not drawn) [Compound 315] | 20 | 60 | 90 | 100 | 50 | 80 | 30 | 50 | 20 | 80 | 40 | 60 | 30 | 70
3 | Cc1c(NS(=O)(=O)C(F)(F)F)cc(C(=O)N2CC(C)OC(C)C2)c(C)c1C (stereo not drawn) [Compound 328] | 20 | 30 | 40 | 80 | 10 | 60 | 30 | 40 | 40 | 70 | 60 | 60 | 0 | 50
4 | CCOC(=O)N(c1cc(C(=O)N2CCCCC2)c(C)c(C)c1C)S(=O)(=O)C(F)(F)F [Compound 330, Ethyl N-[(trifluoromethyl)sulfonyl]-N-[2,3,4-trimethyl-5-(1-piperidinylcarbonyl)phenyl]carbamate] | 0 | 30 | 40 | 100 | 10 | 50 | 0 | 50 | 50 | 80 | 90 | 80 | 0 | 30
5 | Cc1c(C(=O)N2CCOCC2)cc(NS(=O)(=O)C(F)(F)F)c(Cl)c1F [Compound 321] | 0 | 70 | 70 | 100 | 40 | 80 | 50 | 70 | 90 | 90 | 20 | 40 | 0 | 10
6 | Cc1c(C(=O)N2CCCCC2)cc(NS(=O)(=O)C(F)(F)F)c(Cl)c1F [Compound 333] | 0 | 0 | 80 | 80 | 30 | 70 | 40 | 60 | 0 | 80 | 30 | 80 | 0 | 30
7 | Cc1cc(C)c(N(COC(=O)OC(C)C)S(=O)(=O)C(F)(F)F)cc1C1=NOC2CCCC12 (stereo not drawn) [Compound 314] | 0 | 20 | 80 | 90 | 30 | 70 | 10 | 60 | 0 | 70 | 40 | 50 | 50 | 70
8 | Cc1c(C(=O)N2CCC(F)CC2)cc(N(COC(=O)C(C)(C)C)S(=O)(=O)C(F)(F)F)c(C)c1C [Compound 361] | 0 | 0 | 10 | 100 | 0 | 50 | 10 | 20 | 60 | 80 | 50 | 70 | 0 | 20
9 | Cc1cc(F)c(NS(=O)(=O)C(F)(F)F)cc1C1=NOC2(CCCC2)C1 [Compound 303] | 0 | 40 | 50 | 100 | 0 | 60 | 0 | 20 | 30 | 80 | 30 | 50 | 0 | 50
